From patent publication US6689887B2, “Inhibition of human telomerase by a G-quadruplex-interaction compound” (Board of Regents, The University of Texas System, priority 1998, dated 2004) come the findings set out here.

Broadly, the IC50 is the concentration that inhibits the measured activity by half. Read a low IC50 as inhibition by little substance.

One series deals with human cancer cells. Kind of series: MTT assay, human cancer cell lines. The series is classed as cell-based. The settings on record: 72 hours; highest concentration tested 100 μM. The procedure: (§1) The ability of these compounds to inhibit the proliferative capacity of human cancer cells was determined by a standard MTT assay. Briefly, cells were incubated for 72 hours in the presence of various concentrations of compound, and the cell viability was determined by monitoring the formation of a colored formazan salt of the tetrazolium salt 3-(4,5-dimethylthiazol-2-yl)-2,5-diphenyl tetrazolium bromide (MTT) by viable cells.
(Formazan colour is commonly taken as a measure of viable cells.)

In another series the test system is Raji. As to the kind of experiment: MTT cytotoxicity assay, Raji. Type of series: cell-based, human. The settings on record: 72 hours. The procedure:
as §1

In another series the test system is BT-20. Kind of series: MTT cytotoxicity assay, BT-20. The series is classed as cell-based, human. The conditions noted are these: BT-20, 72 hours. The procedure: as §1
The next series relates to d(TTAGGGT)4 G-quadruplex. Kind of series: UV/VIS spectroscopy titration with G-quadruplex. Type of series: binding, human. The conditions noted are these: 20 μM compound, 0-80 μM quadruplex, overnight, pH 7.0. The procedure: (B) Compounds may be selected for their ability to interact with human DNA G-quadruplex as indicated by UV/VIS spectroscopy. To a 10 μM solution of N,N′-bis(2-dimethylaminoethyl)-3,4,9,10-perylenetetracarboxylic acid diimide in 20 mM phosphate buffer containing 100 mM KCl, pH 7.0 in a quartz cuvette was added 10 μL aliquots of a 3 mM solution of d(TTAGGGT)4 (SEQ ID No. 6). After each addition the UV/VIS spectrum was recorded.
(§2) The N,N′-bis(3-morpholinopropyl)3,4,9,10-perylenetetracarboxilic acid diimide (KeTEL01) was synthesized from 3,4,9,10-perylenetetracarboxylic acid dianhydride and 3-morpholinopropylamine using a procedure analogous to that described above in example 5.3 for the synthesis of N,N′-bis(2-piperdinoethyl)-3,4,9,10-perylenetetracarboxylic acid diimide. A solution of KeTEL01 was prepared by dissolving 1 mg of KeTEL01 in 300 μL of 1 N HCl. To this solution was added 11 mL of a pH 7.0 buffer containing 20 mM sodium phosphate, 100 mM KCl, 1 mM EDTA, and 0.02% hydroxypropyl-β-cyclodextrin. Aliquots of this stock solution of KeTEL01 were transferred to 8 different quartz cuvettes and diluted into pH 7.0 mM sodium phosphate, 100 mM KCl, 1 mM EDTA buffer to afford solutions in which the concentration of KeTEL01 was 20 μM. To each of the cuvettes was added a solution of [d(TTAGGGT)]4 (SEQ ID No. 6) so that the final concentration of [d(TTAGGGT)]4 (SEQ ID No. 6) in each of the cuvettes was 0, 4, 8, 12, 16, 20, 50, and 80 μM. These solutions were allowed to stand overnight in the dark, and the UV/VIS spectrum of each was determined. […] In a parallel study, changes in the UV/VIS spectrum of a 20 μM solution of KeTEL01 in a pH 7.0 20 mM phosphate buffer containing 100 mM KCl and 1 mM EDTA were determined upon the addition of […] aliquots of a 3 mM (base pair) solution of calf thymus DNA.

A further series has as its system MCF-7. Kind of series: MTT cytotoxicity assay, MCF-7. The settings on record: MCF-7, 72 hours. Type of series: cell-based, human. The procedure:
as §1

In series [1] the test system is calf thymus DNA (double-stranded DNA). As to the kind of experiment: UV/VIS spectroscopy with double-stranded DNA. The series is classed as binding. The settings on record: 20 μM compound, pH 7.0, 100 mM KCl. The procedure: as §2
Series [2] has as its system [d(TTAGGGT)]4 G-quadruplex. Kind of series: Kinetics of interaction with G-quadruplex DNA (absorption at 488 nm). The conditions noted are these: 5 μM compound, 50 μM quadruplex, pH 7.0. The series is classed as binding, human. The procedure:
A solution of 5 μM KeTEL01 in 20 mM phosphate buffer, 100 mM KCl, pH 7.0 was placed in a quartz cuvette and the UV/VIS spectrum determined. An aliquot of a solution of [d(TTAGGGT)]4 (SEQ ID No. 6) was added to the cuvette to afford a final concentration of 50 μM. The cuvette was quickly inverted several times and placed in the spectrophotometer. The absorption of the sample at 488 nm was continuously monitored for 3 hours, during which time, the absorption decreased in a multiexponential function. The time required for the absorption at 488 nm to reach one-half of its equilibrium value was 60 mm.

For another series, the system named is PC-3. As to the kind of experiment: MTT cytotoxicity assay, PC-3. The series is classed as cell-based, human. The conditions noted are these: PC-3, 72 hours. The procedure:
as §1

Series [3] concerns G-quadruplex of PQ74 template (four repeats of TTGGGG). Kind of series: DNA synthesis arrest assay with BSU-1051, PQ74 template. The series is classed as biochemical. The procedure: (§3) This assay is a modification of that described by Weitzmann and co-workers (Weitzmann et al., 1996). Briefly, primers (P18, 24 nM) labeled with [γ-^32P] were mixed with template DNA (12 nM)) in a Tris-HCl buffer (10 mM Tris, pH 8.0) containing K^+ (5 mM for the PQ74 template and 50 mM for the HT4 template) and denatured by heating at 90° C. for 5 min. After cooling down to room temperature, BSU-1051 was added at various concentrations and incubated at room temperature for 15 min. The primer extension reactions were initiated by adding dNTP (final concentration 100 μM), MgCl2 (final concentration […]), and Taq DNA polymerase (2.5 U/reaction, Boehringer Mannheim). For sequencing reactions, the TaqTrack Sequencing System (Promega, Wis., Madison) was used. The sequencing reaction buffer was changed to 50 mM Tris-HCl, pH 9.0, 10 mM MgCl, and 50 mM K^+. The reactions were stopped by adding an equal volume of stop buffer (95% formamide, 10 mM EDTA, 10 mM NaOH, 0.1% xylene cyanol, 0.1% bromphenol blue). For the temperature-dependent studies, the ligand concentration was fixed and the primer extension reactions were carried out at the temperatures indicated in methods. The products were separated on a 12% polyacrylamide sequencing gel. The gels were then dried and visualized on a PhosphorImager (Molecular Dynamics model 445 S1).
Although it has been shown that G-quadruplex structures block primer extension by DNA polymerase in a K^+ dependent manner (Weitzmann et at., 1996), the inventors are unaware of any reports showing enhanced blockage by G-quadruplex—interactive agents. To determine if BSU-1051 binding to G-quadruplex enhances the block to DNA synthesis, primer extension reactions were carried out in the absence and presence of BSU-1051. Taq DNA polymerase primer extension on DNA templates containing four repeats of either TTGGGG (SEQ ID No. 7) (PQ74) or TTAGGG (SEQ ID No. 1) (HT4) in the presence of different concentrations of BSU-1051 at 55° C. were performed. […]

The subject of series [4] is G-quadruplex of HT4 template (four repeats of TTAGGG). As to the kind of experiment: DNA synthesis arrest assay with BSU-1051, HT4 template. The series is classed as biochemical, human. The procedure: as §3, with “S1). […]” for “S1).”
The subject of series [5] is 7-deaza-dG substituted HT4 and PQ74 templates. As to the kind of experiment: Primer extension on 7-deaza-dG substituted templates. Type of series: biochemical. The settings on record: BSU-1051 up to 50 μM. The procedure:
as §3, with “S1). […]” for “S1).”

Another series deals with telomerase. Kind of series: Standard telomerase primer extension assay without PCR amplification. Type of series: biochemical, human. The conditions noted are these: at 50 μM, confirmatory tests. The procedure:
The identified inhibitors may be used therapeutically to interfere with the function of telomerase and thus to treat cancers.
Briefly, the 18-mer telomeric primer d[TTAGGG]3 (SEQ ID No. 1) (1 μM) without or with N,N′-bis(2-dimethylaminoethyl)-3,4,9,10-perylenetetracarboxylic acid diimide was elongated with telomerase in the presence of 1.5 μM of [α-^32P]-dGTP (800 Ci mmol^−1, 10 mCi ml^−1) with 1 mM dATP and 1 mM dTTP. The extension products were isolated and visualized by autoradiography after denaturing gel electrophoresis.

Series [6] relates to G-quadruplex in template DNA PQ74. As to the kind of experiment: DNA Synthesis Arrest Assay (Taq polymerase primer extension, PQ74 template). Type of series: biochemical. The procedure: It has been shown that DNA sequences with quadruplex-forming potential present obstacles to DNA synthesis by DNA polymerases in a K^+ dependent manner. This K^+ dependent block to DNA polymerase is a selective and sensitive indicator of the formation of intramolecular quadruplexes (Weitzmann, et al., 1996).
The assay is a modification of that described by Weitzmann, et al. Briefly, primers (24 nM, sequence: 5′-TAATACGACTCACTATAG-3′) (SEQ ID No. 9) labeled with [γ-^32P]ATP were mixed with template DNA PQ74(12 nM, sequence: […] […]-3′) (SEQ ID No. 10) in a Tris-HCl buffer (10 mM Tris, pH 8.0) containing 5 mM K^+ and heated at 90° C. for 4 mm. After cooling at room temperature for 15 mm. potential G-quadruplex-interactive compounds were then added to various concentrations. The primer extension reactions were initiated by adding dNTP (final concentration 100 μM), MgCl2 (final concentration 3 mM) and Taq polymerase (2.5 U/reaction, Boehringer Mannheim). The reactions were incubated at 55° C. for 15 mm. then stopped by adding an equal volume of stop buffer (95% formamide, 10 mM EDTA; 10 mM NaGH, 0.1% xylene cyanol. 0.1% bromophenol blue). The products were separated on a 12% polyacrylamide sequencing gel. The gels were then dried and visualized on a phosphorimager (Molecular Dynamics model 445 S1).
Using the DOCK screening methods above, the carbocyanine group of compounds were identified as potential G-quadruplex interactive agents. […] Each compound was assayed at a concentration of 20 μM.

In another series the test system is d(TTAGGG)4 G-quadruplex. Kind of series: NMR imino proton titration of G-quadruplex. The series is classed as binding, human. The conditions noted are these: overall stoichiometry 1:1, 500 MHz. The procedure: (C) Compounds may be selected for their ability to interact with human DNA G-quadruplex as indicated by NMR spectroscopy. The imino proton spectrum (9-12 ppm) of a solution of d(TTAGGG)4 (SEQ ID No. 1) in D2O/H2O (10:90) was determined at 500 MHz. Aliquot of N,N′-bis(2-piperdinoethyl)-3,4,9,10-perylenetetracarboxylic acid diimide were added and the imino proton spectrum recorded.

SMILES strings stand for the structures.

Take `O=C1c2ccc3c4ccc5c6c(ccc(c7ccc(c2c37)C(=O)N1CCCN1CCOCC1)c64)C(=O)N(CCCN1CCOCC1)C5=O` [KeTEL01, N,N′-bis(3-morpholinopropyl)3,4,9,10-perylenetetracarboxilic acid diimide]: in the series with human cancer cells, the “cytotoxic effect, MTT” value was “no cytotoxic effect”. Also, the IC50 in the series with Raji, in the series on BT-20, with MCF-7 and in the series on PC-3 was greater than 100 µM throughout. Also, the “hyperchromicity at 510 nm” value in the series on d(TTAGGGT)4 G-quadruplex is listed as roughly 40%. For the same molecule, in the series with d(TTAGGGT)4 G-quadruplex, the “hyperchromicity at 548 nm” value is roughly 100%. Besides, the “hypochromicity at 488 nm” value with d(TTAGGGT)4 G-quadruplex is recorded as roughly 40%. In addition, in [1], the “changes in the UV/VIS spectrum upon addition of calf thymus DNA” value is on record as “No changes”. In series [2], the “time required for absorption at 488 nm to reach one-half of its equilibrium value” is 60 min.
Regarding `C[N+]1(CCC(=O)Nc2ccc3c(c2)C(=O)c2ccc(NC(=O)CC[N+]4(C)CCCCC4CO)cc2C3=O)CCCCC1CO.[I-].[I-]` (stereo not drawn) [BSU-1051], the “ΔTm of G-quadruplex” value in series [3] (20 μM BSU-1051) and in series [4] (20 μM BSU-1051) was “about 20 °C” each time. For the same molecule, the “temperature up to which polymerase pausing is observed” value was found to be 74 °C in [3] (20 μM BSU-1051, without ligand pausing almost lost at around 65° C.) and 65 °C in [4] (in the presence of BSU-1051, without ligand pausing fades out at 55° C.). The “primer extension by Taq DNA polymerase” value in [3] (100 μM BSU-1051, 55° C., PQ74 or HT4 template) is reported as “completely inhibited”. In addition, in series [5], the “polymerase pausing on 7-deaza-dG substituted templates” value is on record as “no significant pausing”.
Turning to `CCN1/C(=C/C=C/c2sc3ccccc3[n+]2CC)Sc2ccccc21.[I-]` [UT-SK-002, diethylthiocarbocyanine iodide], the inhibition of telomerase in the series with telomerase is 10-35%. Besides, in series [6] (compound 20 μM), the “Stop (F + P)rel: relative amount of both full-length and paused products” value was found to be 88%; the “Stop (P/T)rel: relative ratio of paused products to total products” value was 139%.
Regarding `O=C1c2ccc3c4ccc5c6c(ccc(c7ccc(c2c37)C(=O)N1CCN1CCCCC1)c64)C(=O)N(CCN1CCCCC1)C5=O` [N,N′-bis(2-piperdinoethyl)-3,4,9,10-perylenetetracarboxylic acid diimide], in [6] (0.5-50 μM, PQ sequence), the “DNA synthesis arrest (FIG. 8)” value was “DNA synthesis arrest”. For the same molecule, the “upfield shift of G6 imino resonance” value with d(TTAGGG)4 G-quadruplex is greater than 0.2 ppm.
